Source: ChEMBL document CHEMBL1201862, “PubChem BioAssay data set” (2004)
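Protocol summary: plate cells (96-well), add compound at 5 concentrations, incubate 48 h, interpolate endpoints linearly. GI50 is the concentration that inhibits growth by half.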 Calls of active or inactive are those of the source. Rule as the data show it: active = GI50 up to about 1.1 µM and inactive = higher.

What was measured:
Assay in all cases: inhibition of tumour cell growth, NCI panel, 48 h
[1] = tested on: 786-0
[2] = tested on: A498
[3] = tested on: A549
[4] = tested on: ACHN
[5] = tested on: CAKI-1
[6] = tested on: CCRF-CEM
[7] = tested on: COLO 205
[8] = tested on: DLD-1
[9] = tested on: DMS-114
[10] = tested on: DMS-273
[11] = tested on: EKVX
[12] = tested on: HCC 2998
[13] = tested on: HCT-116
[14] = tested on: HCT-15
[15] = tested on: HL-60
[16] = tested on: HOP-18
[17] = tested on: HOP-62
[18] = tested on: HOP-92
[19] = tested on: HT-29
[20] = tested on: IGROV-1
[21] = tested on: K562
[22] = tested on: KM-20L2
[23] = tested on: KM12
[24] = tested on: LOX IMVI
[25] = tested on: M14
[26] = tested on: M19-MEL
[27] = tested on: MOLT-4
[28] = tested on: Malme-3M
[29] = tested on: NCI-H226
[30] = tested on: NCI-H23
[31] = tested on: NCI-H460
[32] = tested on: NCI-H522
[33] = tested on: OVCAR-3
[34] = tested on: OVCAR-4
[35] = tested on: OVCAR-5
[36] = tested on: OVCAR-8
[37] = tested on: RPMI-8226
[38] = tested on: RXF 393
[39] = tested on: SF-268
[40] = tested on: SF-295
[41] = tested on: SF-539
[42] = tested on: SK-MEL-28
[43] = tested on: SK-MEL-2
[44] = tested on: SK-MEL-5
[45] = tested on: SK-OV-3
[46] = tested on: SN12C
[47] = tested on: SNB-19
[48] = tested on: SNB-75
[49] = tested on: SNB-78
[50] = tested on: SR
[51] = tested on: SW-620
[52] = tested on: TK-10
[53] = tested on: U-251
[54] = tested on: UACC-257
[55] = tested on: UACC-62
[56] = tested on: UO-31
[57] = tested on: XF498
[58] = tested on: LXFL 529

## CCOC(=O)C1=C(O)C(=O)c2c(OC)ccc(OC)c2C1=O
[1]
  GI50: > 100 µM (inactive)
[2]
  GI50: > 100 µM (inactive)
[3]
  GI50: > 100 µM (inactive)
[4]
  GI50: > 100 µM (inactive)
[5]
  GI50: > 100 µM (inactive)
[6]
  GI50: > 100 µM (inactive)
[7]
  GI50: > 100 µM (inactive)
[8]
  GI50: > 100 µM (inactive)
[9]
  GI50: > 100 µM (inactive)
[10]
  GI50: > 100 µM (inactive)
[11]
  GI50: > 100 µM (inactive)
[12]
  GI50: > 100 µM (inactive)
[13]
  GI50: > 100 µM (inactive)
[14]
  GI50: > 100 µM
[15]
  GI50: > 100 µM (inactive)
[16]
  GI50: 32.5 µM (inactive)
[17]
  GI50: > 100 µM (inactive)
[18]
  GI50: > 100 µM (inactive)
[19]
  GI50: > 100 µM (inactive)
[20]
  GI50: > 100 µM (inactive)
[21]
  GI50: > 100 µM (inactive)
[22]
  GI50: > 100 µM (inactive)
[23]
  GI50: > 100 µM (inactive)
[24]
  GI50: > 100 µM (inactive)
[25]
  GI50: > 100 µM (inactive)
[26]
  GI50: > 100 µM (inactive)
[27]
  GI50: > 100 µM (inactive)
[28]
  GI50: > 100 µM (inactive)
[29]
  GI50: > 100 µM (inactive)
[30]
  GI50: > 100 µM (inactive)
[31]
  GI50: > 100 µM (inactive)
[32]
  GI50: > 100 µM (inactive)
[33]
  GI50: > 100 µM (inactive)
[34]
  GI50: > 100 µM (inactive)
[35]
  GI50: > 100 µM (inactive)
[36]
  GI50: > 100 µM (inactive)
[37]
  GI50: > 100 µM (inactive)
[38]
  GI50: > 100 µM (inactive)
[39]
  GI50: > 100 µM (inactive)
[40]
  GI50: > 100 µM (inactive)
[41]
  GI50: > 100 µM (inactive)
[42]
  GI50: > 100 µM (inactive)
[43]
  GI50: > 100 µM (inactive)
[44]
  GI50: > 100 µM (inactive)
[45]
  GI50: > 100 µM (inactive)
[46]
  GI50: > 100 µM (inactive)
[47]
  GI50: > 100 µM (inactive)
[48]
  GI50: 82.6 µM (inactive)
[49]
  GI50: > 100 µM (inactive)
[50]
  GI50: > 100 µM (inactive)
[51]
  GI50: > 100 µM (inactive)
[52]
  GI50: > 100 µM (inactive)
[53]
  GI50: > 100 µM (inactive)
[54]
  GI50: > 100 µM (inactive)
[55]
  GI50: > 100 µM (inactive)
[56]
  GI50: > 100 µM (inactive)
[57]
  GI50: > 100 µM (inactive)

## C/C=C/C1(C)/C(=N\O)C(C)(CCC)C(=O)N1O (stereo not drawn)
[1]
  GI50: > 100 µM (inactive)
[2]
  GI50: > 100 µM (inactive)
[3]
  GI50: > 100 µM (inactive)
[4]
  GI50: > 100 µM (inactive)
[5]
  GI50: > 100 µM (inactive)
[6]
  GI50: > 100 µM (inactive)
[7]
  GI50: > 100 µM (inactive)
[8]
  GI50: > 100 µM (inactive)
[9]
  GI50: > 100 µM (inactive)
[10]
  GI50: > 100 µM (inactive)
[11]
  GI50: > 100 µM (inactive)
[12]
  GI50: > 100 µM (inactive)
[13]
  GI50: > 100 µM (inactive)
[14]
  GI50: > 100 µM
[15]
  GI50: > 100 µM (inactive)
[17]
  GI50: > 100 µM (inactive)
[18]
  GI50: > 100 µM (inactive)
[19]
  GI50: > 100 µM (inactive)
[20]
  GI50: > 100 µM (inactive)
[21]
  GI50: > 100 µM (inactive)
[22]
  GI50: > 100 µM (inactive)
[23]
  GI50: > 100 µM (inactive)
[24]
  GI50: > 100 µM (inactive)
[58]
  GI50: > 100 µM (inactive)
[25]
  GI50: > 100 µM (inactive)
[26]
  GI50: > 100 µM (inactive)
[27]
  GI50: > 100 µM (inactive)
[28]
  GI50: > 100 µM (inactive)
[29]
  GI50: > 100 µM (inactive)
[30]
  GI50: > 100 µM (inactive)
[31]
  GI50: > 100 µM (inactive)
[32]
  GI50: > 100 µM (inactive)
[33]
  GI50: > 100 µM (inactive)
[34]
  GI50: > 100 µM (inactive)
[35]
  GI50: > 100 µM (inactive)
[36]
  GI50: > 100 µM (inactive)
[37]
  GI50: > 100 µM (inactive)
[38]
  GI50: > 100 µM (inactive)
[40]
  GI50: > 100 µM (inactive)
[41]
  GI50: > 100 µM (inactive)
[42]
  GI50: > 100 µM (inactive)
[43]
  GI50: > 100 µM (inactive)
[44]
  GI50: > 100 µM (inactive)
[45]
  GI50: > 100 µM (inactive)
[46]
  GI50: > 100 µM (inactive)
[47]
  GI50: > 100 µM (inactive)
[48]
  GI50: > 100 µM (inactive)
[49]
  GI50: > 100 µM (inactive)
[50]
  GI50: > 100 µM (inactive)
[51]
  GI50: > 100 µM (inactive)
[52]
  GI50: > 100 µM (inactive)
[53]
  GI50: > 100 µM (inactive)
[54]
  GI50: > 100 µM (inactive)
[55]
  GI50: > 100 µM (inactive)
[56]
  GI50: > 100 µM (inactive)
[57]
  GI50: > 100 µM (inactive)

## O=C(CC(=O)C1CCOC1=O)C(=O)Nc1ccc(Cl)cc1Cl (stereo not drawn)
[1]
  GI50: > 100 µM (inactive)
[2]
  GI50: > 100 µM (inactive)
[3]
  GI50: > 100 µM (inactive)
[4]
  GI50: > 100 µM (inactive)
[5]
  GI50: > 100 µM (inactive)
[6]
  GI50: > 100 µM (inactive)
[7]
  GI50: > 100 µM (inactive)
[8]
  GI50: > 100 µM (inactive)
[9]
  GI50: > 100 µM (inactive)
[10]
  GI50: > 100 µM (inactive)
[11]
  GI50: > 100 µM (inactive)
[12]
  GI50: > 100 µM (inactive)
[13]
  GI50: > 100 µM (inactive)
[14]
  GI50: > 100 µM
[15]
  GI50: > 100 µM (inactive)
[17]
  GI50: > 100 µM (inactive)
[18]
  GI50: > 100 µM (inactive)
[19]
  GI50: > 100 µM (inactive)
[20]
  GI50: > 100 µM (inactive)
[21]
  GI50: > 100 µM (inactive)
[22]
  GI50: > 100 µM (inactive)
[23]
  GI50: > 100 µM (inactive)
[24]
  GI50: > 100 µM (inactive)
[58]
  GI50: > 100 µM (inactive)
[25]
  GI50: > 100 µM (inactive)
[26]
  GI50: > 100 µM (inactive)
[28]
  GI50: > 100 µM (inactive)
[29]
  GI50: > 100 µM (inactive)
[30]
  GI50: > 100 µM (inactive)
[31]
  GI50: > 100 µM (inactive)
[32]
  GI50: > 100 µM (inactive)
[33]
  GI50: > 100 µM (inactive)
[34]
  GI50: > 100 µM (inactive)
[35]
  GI50: > 100 µM (inactive)
[36]
  GI50: > 100 µM (inactive)
[37]
  GI50: > 100 µM (inactive)
[38]
  GI50: > 100 µM (inactive)
[39]
  GI50: > 100 µM (inactive)
[40]
  GI50: > 100 µM (inactive)
[41]
  GI50: > 100 µM (inactive)
[42]
  GI50: > 100 µM (inactive)
[43]
  GI50: > 100 µM (inactive)
[44]
  GI50: > 100 µM (inactive)
[45]
  GI50: > 100 µM (inactive)
[46]
  GI50: > 100 µM (inactive)
[47]
  GI50: > 100 µM (inactive)
[48]
  GI50: 53.1 µM (inactive)
[49]
  GI50: > 100 µM (inactive)
[51]
  GI50: > 100 µM (inactive)
[52]
  GI50: > 100 µM (inactive)
[53]
  GI50: > 100 µM (inactive)
[54]
  GI50: > 100 µM (inactive)
[55]
  GI50: > 100 µM (inactive)
[56]
  GI50: > 100 µM (inactive)
[57]
  GI50: > 100 µM (inactive)
